Measurements as given in article PMC11350809, “Targeting N-Acetylglucosaminidase in Staphylococcus aureus with Iminosugar Inhibitors” (Antibiotics, 2024).
≈ marks a conversion by molar mass, not a printed value. Entries after “also recorded” stand apart in the source; their conditions may differ. Where two headings read alike, the source gives them in different places.

How the values were obtained:
[1] = biological target: autolysin E (AtlE) (Staphylococcus aureus, UniProt A0A0H3JT72); assay: Surface plasmon resonance (SPR) binding to immobilized AtlE; details: for maximal SPR response compared with the maximal theoretical response: theoretical response calculated from molecular masses of AtlE and compound, surfactant P20 in running buffer
Chain of autolysin E (AtlE) (A0A0H3JT72 entry or part of it): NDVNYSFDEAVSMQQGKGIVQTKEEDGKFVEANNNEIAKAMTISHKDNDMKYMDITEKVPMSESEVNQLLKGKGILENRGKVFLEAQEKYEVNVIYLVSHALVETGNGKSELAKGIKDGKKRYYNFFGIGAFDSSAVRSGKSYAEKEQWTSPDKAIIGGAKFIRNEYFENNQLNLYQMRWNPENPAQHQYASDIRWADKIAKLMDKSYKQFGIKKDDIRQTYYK
Description: The potential inhibitory effect of compounds that bind to AtlE was measured using surface plasmon resonance (SPR). The protein was covalently attached to the surface of the CM5 sensor chip (5200 response units (RU)). The compounds were prepared as 20 mM stock solutions in DMSO and diluted with HEPES running buffer with 2.5% DMSO. Some compounds were less soluble, which was also predicted by the in silico programs and QSAR models for aqueous solubility (see Supplementary Table S3).
The binding of iminosugars was recorded and analyzed using the Biacore T200 3.2.1 software v3.2.1 Evaluation (for results, see Table 1). […] Therefore, for further testing of AtlE binding, the iminosugar derivatives with a lipophilic tail were chosen (1,5-dideoxy-1,5-imino-D-xylitol derivatives (DIX)).
Three compounds, 1, 3 and 8, were identified as AtlE binders. Two of them, 1 and 3, were titrated at eight different concentrations, while compound 8 was titrated firstly at six different concentrations (Figure 4a) and secondly at seven concentrations (Figure S2). The equilibrium dissociation constant KD was estimated using the 1:1 steady-state affinity binding model, with the graphs showing the response units as a function of inhibitor concentration (Figure 4b). […] The maximal theoretical response was calculated using the molecular masses of AtlE and the compounds, respectively. […] Due to the amphiphilicity of the compounds with a hydrophilic sugar unit in the head and a hydrophobic fatty acid residue in the tail, we can assume that both compounds can form oligomeric micelles. To prevent the formation of micelles, we added a surfactant P20 to the running buffer, but the maximum theoretical binding to AtlE was not reached for compounds 1 and 3. This brings into question the true nature of their binding and should be verified by another independent method.
Figure 4 (a) Representative SPR sensorgrams (response curves) and (b) representative saturation curves with evaluated KD for compounds 1, 3 and 8 at different concentrations. SPR analysis of compound 1, 3 and 8 interactions with the immobilized AtlE. Compounds were injected across immobilized AtlE in serial dilutions for 60 s at a rate of […], and the dissociation was followed for 50 s. Sensorgrams are shown along with the apparent equilibrium dissociation constant (KD) determined from the response curves as a function of the compound concentration injected across AtlE. KD values are the mean ± standard deviation of three titrations. The data were fitted to the steady-state affinity binding model.
Surface plasmon resonance (SPR) experiments were performed at 25 °C using a Biacore T200 (Biacore, GE Healthcare, Uppsala, Sweden) instrument with Series S sensor chip CM5 (GE Healthcare). […]

[2] = system: S. aureus (ATCC 29213); assay: Minimal inhibitory concentration, broth microdilution; assay type: cell-based, Staphylococcus aureus; details: for MIC: Staphylococcus aureus, ATCC29213, broth microdilution, 20 h at 35 °C, read-out: MIC S. aureus ATCC29213
Description: (§1) The minimal inhibitory concentrations (MICs) were determined against the bacterial strains S. aureus (ATCC 29213) and E. coli (ATCC 25922), and the results are presented in Table S6.
(§2) Antimicrobial testing was carried out by the broth microdilution method in a 96-well plate format following the CLSI guidelines and European Committee for Antimicrobial Susceptibility Testing (EUCAST) recommendations. Bacterial suspension of a specific bacterial strain equivalent to 0.5 McFarland turbidity standard was diluted with cation-adjusted Mueller Hinton broth to obtain a final inoculum of 10^5 CFU/mL. Compounds dissolved in 20% DMSO and inoculum were mixed together and incubated for 20 h at 35 °C. After incubation, the minimal inhibitory concentration (MIC) values were determined by visual inspection as the lowest dilution of compounds showing no turbidity. The MICs were determined against S. aureus (ATCC 29213) and E. coli (ATCC 25922) bacterial strains. Tetracycline was used as a positive control on every assay plate, showing MICs of 0.5 µg/mL and 1 µg/mL for S. aureus and E. coli, respectively.

[3] = system: E. coli (ATCC 25922); assay: Minimal inhibitory concentration, broth microdilution (negative control strain); assay type: cell-based; details: Escherichia coli, ATCC25922; broth microdilution, 20 h at 35 °C; read-out: MIC E. coli ATCC25922
Description: as §1, §2

[4] = biological target: α-Glucosidase (from baker's yeast); details: cited from earlier work
[5] = biological target: α-Galactosidase (from green coffee beans); details: cited from earlier work
[6] = biological target: β-Glucosidase (from almond); details: cited from earlier work
[7] = biological target: β-Galactosidase (from bovine liver); details: cited from earlier work
[8] = biological target: naringinase (Nar); details: cited from earlier work
[9] = biological target: human recombinant β-glucocerebrosidase (GBA); details: cited from earlier work
[10] = biological target: β-galactocerebrosidase (GALC); details: cited from earlier work
[11] = pH 7.2, p-nitrophenyl-a-d-glucopyranoside, footnote **
[12] = pH 6.8, p-nitrophenyl-a-d-galactopyranoside, footnote **
[13] = pH 5.0, p-nitrophenyl-b-d-glucopyranoside, footnote **
[14] = pH 5.2, footnote **, read-out: IC50 GBA pH 5.2
[15] = pH 7.0, footnote **, read-out: IC50 GBA pH 7.0

Row | SMILES | maximal SPR response compared with the maximal theoretical response [1] | MIC [2] [µM] | MIC [3] [µM] | IC50 human recombinant β-glucocerebrosidase ([9]; in words) | IC50 [4, 11] [µM] | IC50 [5, 12] [µM] | IC50 [6, 13] [µM] | IC50 ([7]; footnote **) [µM] | IC50 ([8]; footnote **) [µM] | IC50 [9, 14] [µM] | IC50 [9, 15] [µM] | IC50 ([10]; footnote **) [µM] | further results
1 | OC[C@H]1NC[C@H](O)[C@@H](O)[C@@H]1O [1-deoxynojirimycin, reference compound] | – | – | – | – | – | – | – | – | – | – | – | – | binding of AtlE (SPR) ([1]; tested at 100 µM and 1 mM): no binding of AtlE; also recorded: did not inhibit AtlE
2 | CCCCCCCCCCCCCCN=C1OCC2C(O)C(O)C(O)CN12 (stereo not drawn) [Compound 1] | higher maximal response than expected; also recorded: higher than expected maximum response | 8 (≈ 3.08 µg/mL) | 125 (≈ 48.1 µg/mL) | low nanomolar range | – | – | – | – | – | – | – | – | antibacterial activity against S. aureus ATCC 29213 ([2]; in words): modest antibacterial activities; IC50 ([4]; pH 7.2, p-nitrophenyl-α-D-glucopyranoside, footnote *): > 100 µM; IC50 ([5]; pH 6.8, p-nitrophenyl-α-D-galactopyranoside, footnote *): > 100 µM; IC50 ([6]; pH 5.0, p-nitrophenyl-β-D-glucopyranoside, footnote *): 0.7 ± 0.03 µM; IC50 ([7]; footnote *): 0.1 ± 0.03 µM; IC50 ([8]; footnote *): 0.2 ± 0.01 µM; IC50 ([9]; pH 5.2, footnote *, read-out: IC50 GBA pH 5.2): 0.02 ± 0.001 µM; IC50 ([9]; pH 7.0, footnote *, read-out: IC50 GBA pH 7.0): 0.001 ± 0.001 µM; IC50 ([10]; footnote *): > 10 µM
3 | CCCCCCCCCCNC(=N)N1CC(O)C(O)C(O)C1 (stereo not drawn) [Compound 3] | higher maximal response than expected; also recorded: higher than expected maximum response | 500 (≈ 158 µg/mL) | > 500 | low nanomolar range | > 100 | > 100 | 26 ± 0.9 | 2.7 ± 0.2 | 41.5 ± 0.2 | 0.09 ± 0.01 | 0.03 ± 0.01 | > 10 | –
4 | CCCCCCCCCCNC(=O)N1CC(O)C(O)C(O)C1 (stereo not drawn) [Compound 8] | achieved the expected maximal theoretical response; also recorded: expected maximum theoretical response was not exceeded | > 500 | > 500 | – | > 100 | > 100 | > 100 | 10.4 ± 0.9 | > 100 | > 10 | > 10 | > 10 | inhibitor of β-glucocerebrosidase ([9]; in words, previous studies): not as an inhibitor of β-glucocerebrosidase; binding of human recombinant β-glucocerebrosidase ([9]; in words): no binding of this enzyme was observed
